Common to all, as to assay: inhibition of tumour cell growth, NCI panel, 48 h
For experiment [1], the system named is UACC-62 melanoma.
For experiment [2], the system named is MCF7 breast.
Experiment [3] concerns RXF 393 renal.
For experiment [4], the system named is SNB-19 CNS.
The test system of experiment [5] is A498 renal.
For experiment [6], the system named is DU-145 prostate.
The test system of experiment [7] is BT-549 breast.
Experiment [8] relates to RPMI-8226 leukemia.
The test system of experiment [9] is CCRF-CEM leukemia.
Experiment [10] relates to MOLT-4 leukemia.

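All cell lines were grown in 96-well plates and treated with compound for 48 hours. At the GI50, growth is halved. TGI denotes the concentration required for complete inhibition of growth.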 A value given as a limit tells only on which side of the number the result lay.

In the case of `COc1ccc(-c2nc(-c3nc4cc(Cl)c(F)cc4[nH]3)c3ccccn23)cc1`, the GI50 in [1] is 6.05 µM; in experiment [2], 4.57 µM; in experiment [3] it was 4.65 µM; in experiment [4] it was 8.34 µM; in [5], 2.31 µM; in experiment [6], 6.58 µM. In addition, the GI50 in [7] is 4.91 µM; in experiment [8], 3.02 µM; in [9], 3.91 µM; in [10], 4.21 µM. Moreover, the TGI in [1], in [2], in experiment [3], in experiment [4], in experiment [5] and in experiment [6] was over 100 µM throughout. Moreover, the TGI in experiment [7], in experiment [8], in [9] and in experiment [10] was over 100 µM in each case.

With `Cn1cc(-c2cc(-c3cn(C)c4ccc(Cl)cc34)[nH]n2)c2cc(Cl)ccc21`, the GI50 in [1] is 1.63 µM; in experiment [2], 2.64 µM; in experiment [3], 3.03 µM; in experiment [4], 4.09 µM; in [5] it was 2.44 µM; in [6], 9.6 µM. Further, the GI50 is 2.03 µM in [7], 6.79 µM in [8], 6.4 µM in [9] and 1.55 µM in experiment [10]. The TGI in experiment [1] was 3.35 µM; in experiment [2], 6.89 µM; in experiment [3], 16.2 µM; in experiment [4], 20.1 µM; in experiment [5] it was 9.79 µM; in experiment [6], over 100 µM. Also, the TGI in experiment [7] was 5.24 µM; in [8] it was over 100 µM; in experiment [9] it was 23.8 µM; in experiment [10] it was 11.8 µM.

On to `Nc1nc(N)c2cc(Sc3ccc4ccccc4c3)ccc2n1`, for which the TGI came to 6.09 µM in experiment [1]; 2.86 µM in experiment [2]; 4.62 µM in [3]; 7.61 µM in [4]; 17.4 µM in experiment [5]; 6.01 µM in [6]. In addition, the TGI was determined as 9 µM in experiment [7], 4.72 µM in experiment [8], 4.83 µM in [9] and 5.51 µM in experiment [10].

Consider `CCSc1ccc([C@@H]2[C@@H](O)C(=O)N2c2cc(OC)c(OC)c(OC)c2)cc1`, for which the GI50 in [1] was under 0.01 µM; in experiment [2], under 0.01 µM; in experiment [3] it was under 0.01 µM; in [4] it was under 0.01 µM; in experiment [5], under 0.01 µM; in experiment [6] it was 0.0252 µM. Also, the GI50 in experiment [7] is 0.0264 µM; in [8] it was 0.0279 µM; in experiment [9] it was under 0.0171 µM; in experiment [10] it was 0.0384 µM. The TGI in [1] was 20.1 µM; in experiment [2], 15.7 µM; in [3], 52.3 µM; in [4], over 100 µM; in experiment [5], 0.829 µM; in experiment [6], over 50.3 µM. The TGI was 0.503 µM in experiment [7], 12 µM in experiment [8], over 100 µM in [9] and 17.7 µM in experiment [10].

On to `COc1ccc2c(c1)C(=O)/C(=C/c1cccc(OCC(=O)Nc3nc(C)c(C)s3)c1)O2`, for which the GI50 in [1] was 1.97 µM; in [2], 1.63 µM; in experiment [3], 0.0214 µM; in [4], 12.2 µM; in experiment [5], 1.75 µM; in experiment [6], 0.121 µM. In addition, the GI50 in experiment [7] is 2.37 µM; in experiment [8], 0.104 µM; in [9] it was 0.0168 µM; in [10] it was 0.155 µM. The TGI in experiment [1] turned out to be 7.98 µM; in [2], 3.48 µM; in experiment [3], 0.0418 µM; in experiment [4], 25.7 µM; in experiment [5] it was 10.7 µM; in experiment [6], 0.67 µM. Besides, the TGI amounted to 7.63 µM in experiment [7], 0.587 µM in [8], 0.0337 µM in [9] and 0.369 µM in experiment [10].

With `CCC(=O)N/S(=N/S(=O)(=O)c1ccccc1)C(Cl)(Cl)Cl` (stereo not given), the TGI in experiment [1], in experiment [2], in experiment [3], in [4], in [5] and in experiment [6] was over 100 µM throughout. Also, the TGI in experiment [7], in experiment [8], in experiment [9] and in [10] was over 100 µM throughout.

In the case of `CC(/C=C/C(O)=C1/C(=O)CNC1=O)=C\[C@@H](C)[C@H]1O[C@@]2(C)O[C@H](C(=O)[C@@H]3O[C@@]32C)[C@@H]1C`, the TGI in [1] is 33.3 µM; in [2] it was 39.8 µM; in [3] it was 25.3 µM; in [4], 55.4 µM; in experiment [5], 29.1 µM; in [6] it was 40.1 µM. Moreover, the TGI in experiment [7] is 36.3 µM; in experiment [8], 35.9 µM; in experiment [9] it was over 100 µM; in experiment [10], 72.2 µM.

On to `COc1cc(OCc2cccc(-c3ccccc3)c2C)cc(OC)c1CN1CCCCC1C(=O)NCCOCCOCCN` (stereo not given), for which the GI50 in experiment [1] was 1.79 µM; in [2], 1.92 µM; in experiment [3] it was 3.26 µM; in experiment [4] it was 2.95 µM; in [5] it was 2.27 µM; in experiment [6], 4.61 µM. Besides, the GI50 in experiment [7] was 11.5 µM; in experiment [8], 2.04 µM; in experiment [9], 2.68 µM; in experiment [10], 2.08 µM. The TGI in experiment [1] turned out to be 3.41 µM; in [2] it was 3.92 µM; in experiment [3] it was 11.4 µM; in experiment [4], 10.6 µM; in [5], 11.8 µM; in experiment [6] it was 16.1 µM. Also, the TGI was found to be 24.7 µM in [7], 5 µM in experiment [8], 8.9 µM in experiment [9] and 5.79 µM in experiment [10].

These data come from PubChem BioAssay (NCI).
